In PubChem BioAssay (NCI):
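GI50 marks 50% less growth. TGI: total growth inhibition.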

Assays:
Assay in all cases: DTP human tumour cell line panel, 384-well format
786-0 renal = system: 786-0 renal
A498 renal = system: A498 renal
A549 NSCLC = system: A549 NSCLC
ACHN renal = system: ACHN renal
BT-549 breast = system: BT-549 breast
CAKI-1 renal = system: CAKI-1 renal
CCRF-CEM leukemia = system: CCRF-CEM leukemia
COLO 205 colon = system: COLO 205 colon
DU-145 prostate = system: DU-145 prostate
EKVX NSCLC = system: EKVX NSCLC
HCC-2998 colon = system: HCC-2998 colon
HCT-116 colon = system: HCT-116 colon
HCT-15 colon = system: HCT-15 colon
HL-60(TB) leukemia = system: HL-60(TB) leukemia
HOP-62 NSCLC = system: HOP-62 NSCLC
HOP-92 NSCLC = system: HOP-92 NSCLC
HS 578T breast = system: HS 578T breast
HT29 colon = system: HT29 colon
IGROV1 ovarian = system: IGROV1 ovarian
K-562 leukemia = system: K-562 leukemia
KM12 colon = system: KM12 colon
LOX IMVI melanoma = system: LOX IMVI melanoma
M14 melanoma = system: M14 melanoma
MALME-3M melanoma = system: MALME-3M melanoma
MCF7 breast = system: MCF7 breast
MDA-MB-231 breast = system: MDA-MB-231 breast
MDA-MB-435 melanoma = system: MDA-MB-435 melanoma
MDA-MB-468 breast = system: MDA-MB-468 breast
MOLT-4 leukemia = system: MOLT-4 leukemia
NCI-H226 lung = system: NCI-H226 lung
NCI-H23 lung = system: NCI-H23 lung

SMILES: CO[C@H]1C[C@@H]2CC[C@@H](C)[C@@](O)(O2)C(=O)C(=O)N2CCCC[C@H]2C(=O)O[C@H]([C@H](C)C[C@@H]2CC[C@@H](O)[C@H](OC)C2)CC(=O)[C@H](C)C=C(C)[C@@H](O)[C@@H](OC)C(=O)[C@H](C)C[C@H](C)/C=C/C=C/C=C1C
- GI50 ([…]-0 renal): 5.99 µM
- TGI (786-0 renal): 26.9 µM
- TGI (A498 renal): 17.4 µM
- TGI (A549 NSCLC): > 45.4 µM
- GI50 (ACHN renal): 1.61 µM
- TGI (ACHN renal): 23.4 µM
- GI50 (BT-549 breast): 3.98 µM
- TGI (BT-549 breast): 18.7 µM
- TGI (CAKI-1 renal): 21.5 µM
- TGI (CCRF-CEM leukemia): 7.12 µM
- GI50 (COLO 205 colon): 11.3 µM
- TGI (COLO 205 colon): 23.4 µM
- GI50 (DU-145 prostate): 4.69 µM
- TGI (DU-145 prostate): 36.2 µM
- GI50 (EKVX NSCLC): 12.3 µM
- TGI (EKVX NSCLC): 29.1 µM
- GI50 (HCC-2998 colon): 4.72 µM
- TGI (HCC-2998 colon): 18.6 µM
- GI50 (HCT-116 colon): 8.71 µM
- TGI (HCT-116 colon): 24.2 µM
- GI50 (HCT-15 colon): 3.92 µM
- TGI (HCT-15 colon): 19.7 µM
- GI50 (HL-60(TB) leukemia): 3.98 µM
- TGI (HL-60(TB) leukemia): 7.97 µM
- TGI (HOP-62 NSCLC): 20.2 µM
- GI50 (HOP-92 NSCLC): 11 µM
- TGI (HOP-92 NSCLC): 25 µM
- TGI (HS 578T breast): 9.94 µM
- GI50 (HT29 colon): 6.66 µM
- TGI (HT29 colon): 21.8 µM
- TGI (IGROV1 ovarian): 15.3 µM
- GI50 (K-562 leukemia): 4.35 µM
- TGI (K-562 leukemia): 18.4 µM
- GI50 (KM12 colon): 10.2 µM
- TGI (KM12 colon): 23.1 µM
- GI50 (LOX IMVI melanoma): 13.1 µM
- TGI (LOX IMVI melanoma): 25.8 µM
- GI50 (M14 melanoma): 11 µM
- TGI (M14 melanoma): 23.7 µM
- TGI (MALME-3M melanoma): 20.6 µM
- TGI (MCF7 breast): 15.4 µM
- GI50 (MDA-MB-231 breast): 12 µM
- TGI (MDA-MB-231 breast): 24.5 µM
- GI50 (MDA-MB-435 melanoma): 11.6 µM
- TGI (MDA-MB-435 melanoma): 24.2 µM
- TGI (MDA-MB-468 breast): 8.1 µM
- TGI (MOLT-4 leukemia): 4.88 µM
- GI50 (NCI-H226 lung): 10.3 µM
- TGI (NCI-H226 lung): 23.5 µM
- GI50 (NCI-H23 lung): 12 µM
- TGI (NCI-H23 lung): 24.8 µM
